Data from patent US12250947B2, “Substituted azaspiro-cycles as herbicides” (SYNGENTA CROP PROTECTION AG, priority 2019, dated 2025).

What was measured:
Format in all cases: in vivo
barley crop plants = experiment: Crop phytotoxicity comparison, post-emergence, barley
Protocol: (§1) Seeds of a variety of test species are sown in standard soil in pots (Lolium perenne (LOLPE), Setaria faberi (SETFA), Alopecurus myosuroides (ALOMY), Echinochloa crus-galli (ECHCG), Avena fatua (AVEFA)). After cultivation for one day (pre-emergence) or after 8 days cultivation (post-emergence) under controlled conditions in a glasshouse (at 24/16° C., day/night; 14 hours light; 65% humidity), the plants are sprayed with an aqueous spray solution derived from the formulation of the technical active ingredient in acetone/water (50:50) solution containing 0.5% Tween 20 (polyoxyethelyene sorbitan monolaurate, CAS RN 9005-64-5). Compounds are applied at 250 g/h. The test plants are then grown in a glasshouse under controlled conditions in a glasshouse (at 24/16° C., day/night; 14 hours light; 65% humidity) and watered twice daily. After 13 days for pre and post-emergence, the test is evaluated for the percentage damage caused to the plant. The biological activities are shown in the following table on a five-point scale (5=80-100%; 4=60-79%; 3=40-59%; 2=20-39%; 1=0-19%). NT=not tested.
(§2) Using procedures outlines above, wheat and barley crop plants are treated, post-emergence with compounds A1 or A4 of the present invention or comparator compound C1 (Compound A-38 from WO2014/096289) at the application rates indicated. The compounds were also applied in conjunction with the safener compound cloquintocet-mexyl (CQC) at 50 g/ha.

[1] = tested on: Echinochloa crus-galli (ECHCG); experiment: Herbicidal glasshouse test, pre-emergence, ECHCG; conditions: 250 g/Ha, evaluated after 13 days
Protocol: (§3) Seeds of a variety of test species are sown in standard soil in pots (Lolium perenne (LOLPE), Setaria faberi (SETFA), Alopecurus myosuroides (ALOMY), Echinochloa crus-galli (ECHCG), Avena fatua (AVEFA)). […] Compounds are applied at 250 g/h. The test plants are then grown in a glasshouse under controlled conditions in a glasshouse (at 24/16° C., day/night; 14 hours light; 65% humidity) and watered twice daily. After 13 days for pre and post-emergence, the test is evaluated for the percentage damage caused to the plant. […] NT=not tested.

[2] = tested on: Alopecurus myosuroides (ALOMY); experiment: Herbicidal glasshouse test, post-emergence, ALOMY; conditions: 250 g/Ha, evaluated after 13 days
Protocol: as §3

Setaria faberi (SETFA) [3] = experiment: Herbicidal glasshouse test, post-emergence, SETFA; conditions: 250 g/Ha, evaluated after 13 days
Protocol: as §3

Avena fatua (AVEFA) [4] = experiment: Herbicidal glasshouse test, pre-emergence, AVEFA; conditions: 250 g/Ha, evaluated after 13 days
Protocol: as §3

Avena fatua (AVEFA) [5] = experiment: Herbicidal glasshouse test, post-emergence, AVEFA; conditions: 250 g/Ha, evaluated after 13 days
Protocol: as §3

Lolium perenne (LOLPE) [6] = experiment: Herbicidal glasshouse test, post-emergence, LOLPE; conditions: 250 g/Ha, evaluated after 13 days
Protocol: as §3

Setaria faberi (SETFA) [7] = experiment: Herbicidal glasshouse test, pre-emergence, SETFA; conditions: 250 g/Ha, evaluated after 13 days
Protocol: as §3

Lolium perenne (LOLPE) [8] = experiment: Herbicidal glasshouse test, pre-emergence, LOLPE; conditions: 250 g/Ha, evaluated after 13 days
Protocol: as §3

wheat crop plants = experiment: Crop phytotoxicity comparison, post-emergence, wheat; conditions: for damage to the wheat and barley crops compared to prior art compound C1: summary of Table B3
Protocol: as §1, §2

[9] = tested on: Echinochloa crus-galli (ECHCG); experiment: Herbicidal glasshouse test, post-emergence, ECHCG; conditions: 250 g/Ha, evaluated after 13 days
Protocol: as §3

[10] = tested on: Alopecurus myosuroides (ALOMY); experiment: Herbicidal glasshouse test, pre-emergence, ALOMY; conditions: 250 g/Ha, evaluated after 13 days
Protocol: as §3

[11] = rate 60 g/ha + safener cloquintocet-mexyl (CQC) at 50 g/ha

| SMILES | % phytotoxicity observed, Barley (barley crop plants; rate 30 g/ha) [%] | % phytotoxicity observed, Barley (barley crop plants; rate 60 g/ha) [%] | percentage damage caused to the plant, five-point scale, ECHCG [1] | percentage damage caused to the plant, five-point scale, ALOMY [2] | percentage damage caused to the plant, five-point scale, SETFA (Setaria faberi (SETFA) [3]) | percentage damage caused to the plant, five-point scale, AVEFA (Avena fatua (AVEFA) [4]) | percentage damage caused to the plant, five-point scale, AVEFA (Avena fatua (AVEFA) [5]) | percentage damage caused to the plant, five-point scale, LOLPE (Lolium perenne (LOLPE) [6]) | percentage damage caused to the plant, five-point scale, SETFA (Setaria faberi (SETFA) [7]) | percentage damage caused to the plant, five-point scale, LOLPE (Lolium perenne (LOLPE) [8]) | % phytotoxicity observed, Wheat (wheat crop plants; rate 30 g/ha) [%] | % phytotoxicity observed, Wheat (wheat crop plants; rate 60 g/ha) [%] | % phytotoxicity observed, Wheat (wheat crop plants; [11]) [%] | damage to the wheat and barley crops compared to prior art compound C1 (wheat crop plants) | percentage damage caused to the plant, five-point scale, ECHCG [9] | percentage damage caused to the plant, five-point scale, ALOMY [10] |
| --- | --- | --- | --- | --- | --- | --- | --- | --- | --- | --- | --- | --- | --- | --- | --- | --- |
| CC#Cc1cc(C)c(C2C(=O)CC3(CCN(C(=O)C(C)=O)CC3)CC2=O)c(C)c1 [Compound A1, 9-(2,6-dimethyl-4-prop-1-ynyl-phenyl)-3-(2-oxopropanoyl)-3-azaspiro[5.5]undecane-8,10-dione] | 0 | 0 | 5 (5=80-100%) | 5 (5=80-100%) | 5 (5=80-100%) | 5 (5=80-100%) | 5 (5=80-100%) | 5 (5=80-100%) | 5 (5=80-100%) | 5 (5=80-100%) | 0 | 10 | 0 | significantly less damaging | 5 (5=80-100%) | 5 (5=80-100%) |
| CC#Cc1cc(C)c(C2C(=O)CC3(CCN(C(=O)C(=O)C(F)(F)F)CC3)CC2=O)c(C)c1 [Compound A3] |  |  | 5 (5=80-100%) | 5 (5=80-100%) | 5 (5=80-100%) | 4 (4=60-79%) | 5 (5=80-100%) | 5 (5=80-100%) | 5 (5=80-100%) | 5 (5=80-100%) |  |  |  | significantly less damaging | 5 (5=80-100%) | 5 (5=80-100%) |
| CC#Cc1cc(C)c(C2C(=O)CC3(CCOCC3)CC2=O)c(C)c1 [Compound C1, reference compound] | 80 | 90 |  |  |  |  |  |  |  |  | 40 | 70 | 60 |  |  |  |
